In one assay the test system is HSV-2. The assay is described as follows: Viral plaque number-reduction assay, HSV-2. As to conditions: for HSV-2 IC50: viral plaques in GMK AH1 cells (Table 9). The essentials:
(§1)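 200 PFU virus premixed 10 min with compound (100 μg/mL screen) and kept throughout infection. HSV plaques in GMK AH1 cells, RSV (strain A-2) in HEp-2 cells. Methylcellulose overlay, 37 °C, crystal violet staining after 2 days (HSV-2) or 3 days (HSV-1); plaque numbers counted.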

For the next assay, the system named is RSV. Description: Viral plaque number-reduction assay, RSV. The settings on record: for RSV IC50: viral plaques (Table 9). The essentials: as §1
Assay [1] deals with T1, recombinant human heparanase (Homo sapiens, UniProt Q9Y251).
T1 sequence (Q9Y251 158-543 limits assumed): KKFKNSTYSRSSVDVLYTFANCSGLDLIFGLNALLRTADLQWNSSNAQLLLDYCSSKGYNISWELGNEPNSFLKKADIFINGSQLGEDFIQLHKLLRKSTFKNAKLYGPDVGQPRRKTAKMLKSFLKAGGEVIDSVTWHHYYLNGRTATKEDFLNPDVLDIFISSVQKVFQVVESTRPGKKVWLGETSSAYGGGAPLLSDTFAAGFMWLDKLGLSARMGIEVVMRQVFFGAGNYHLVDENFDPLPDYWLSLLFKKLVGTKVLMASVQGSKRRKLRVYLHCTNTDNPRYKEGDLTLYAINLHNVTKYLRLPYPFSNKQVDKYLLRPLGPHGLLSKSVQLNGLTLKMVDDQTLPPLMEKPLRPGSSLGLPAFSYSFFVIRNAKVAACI
T1 sequence (Q9Y251 36-109 limits assumed): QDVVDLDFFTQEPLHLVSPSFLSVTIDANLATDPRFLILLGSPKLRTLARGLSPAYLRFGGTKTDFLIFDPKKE
Description: Heparanase inhibition assay (fondaparinux cleavage, WST-1). The settings on record: read-out: Ki Heparanase; IC50 converted into Ki; fondaparinux 100 μM, pH 5.0. (In general: Tetrazolium dyes change colour on reduction, which living cells bring about.)

In a further assay the target is FGF-1 (Homo sapiens, UniProt P05230). Description: Growth factor binding assay (SPR solution affinity), FGF-1. As to conditions: SPR, HBS-EP buffer, 25° C.; read-out: Kd FGF-1.
A further assay deals with T2, VEGF (Homo sapiens, UniProt P15692).
T2 sequence (P15692 207-395): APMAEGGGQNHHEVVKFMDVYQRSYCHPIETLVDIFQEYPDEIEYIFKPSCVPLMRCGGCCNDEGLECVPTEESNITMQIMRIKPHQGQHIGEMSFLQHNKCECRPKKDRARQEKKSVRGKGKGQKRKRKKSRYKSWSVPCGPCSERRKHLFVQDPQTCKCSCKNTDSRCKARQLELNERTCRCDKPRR
The assay is described as follows: Growth factor binding assay (SPR solution affinity), VEGF. The settings on record: HBS-EP buffer, 25° C. The essentials:
(§2)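 Kd measured by SPR solution affinity: fixed growth factor with varying ligand competing for heparin-coated sensorchip, 25 °C. Buffer HBS-EP pH 7.4 (150 mM NaCl) for FGF-1 and VEGF; FGF-2 with 0.3 M NaCl. Duplicate values averaged.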

In assay [2] the test system is pooled normal human plasma. Description: Anticoagulant activity, APTT. As to conditions: 0.1 mg/mL in normal pooled human plasma. The procedure:
APTT measurements were performed on a STAGO STA-Compact Coagulation Analyser using standard protocols according to the manufacturer's instructions. Unfractionated heparin (UFH) was used as a control.

Another assay has as its target FGF-2 (Homo sapiens, UniProt P09038). Description: Growth factor binding assay (SPR solution affinity), FGF-2. As to conditions: SPR, HBS-EP buffer containing 0.3 M NaCl, 25° C.; read-out: Kd FGF-2. The method, boiled down:
as §2

Assay [3] concerns normal pooled human plasma. Description: Anticoagulant activity, Heptest. The settings on record: 0.1 mg/mL in normal pooled human plasma.

Chain of FGF-1 (P05230 whole entry, species assumed): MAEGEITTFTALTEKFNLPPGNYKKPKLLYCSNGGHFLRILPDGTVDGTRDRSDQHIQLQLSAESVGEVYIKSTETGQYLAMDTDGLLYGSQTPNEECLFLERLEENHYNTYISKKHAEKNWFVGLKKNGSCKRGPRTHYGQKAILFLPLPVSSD
Chain of FGF-2 (P09038 143-288, species assumed): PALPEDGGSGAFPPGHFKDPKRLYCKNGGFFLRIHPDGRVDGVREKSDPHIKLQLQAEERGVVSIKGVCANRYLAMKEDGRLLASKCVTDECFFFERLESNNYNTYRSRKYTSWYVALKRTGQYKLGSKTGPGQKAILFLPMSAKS

As to `CC(C)CCC[C@@H](C)[C@H]1CC[C@H]2[C@@H]3CCC4CC(O[C@H]5O[C@H](COS(=O)(=O)[O-])[C@@H](OS(=O)(=O)[O-])[C@H](O[C@H]6O[C@H](COS(=O)(=O)[O-])[C@@H](OS(=O)(=O)[O-])[C@H](O[C@H]7O[C@H](COS(=O)(=O)[O-])[C@@H](OS(=O)(=O)[O-])[C@H](OS(=O)(=O)[O-])[C@@H]7OS(=O)(=O)[O-])[C@@H]6OS(=O)(=O)[O-])[C@@H]5OS(=O)(=O)[O-])CC[C@]4(C)[C@H]3CC[C@]12C.[Na+].[Na+].[Na+].[Na+].[Na+].[Na+].[Na+].[Na+].[Na+].[Na+]` (stereo partly drawn) [Compound 56, 3′-Cholestanyl 2,3,4,6-tetra-O-sodium sulfonato-α-D-mannopyranosyl-(1→3)-2,4,6-tri-O-sodium sulfonato-α-D-mannopyranosyl-(1→3)-3,4,6-tri-O-sodium sulfonato-α-D-mannopyranoside], in the assay with HSV-2, the “HSV-2 IC50” value was 0.3 µg/mL. Moreover, the “RSV IC50” value with RSV was determined as 0.45 µg/mL. The Ki in assay [1] was 10.5 ± 1.7 nM. For the same compound, the Kd on FGF-1 stood at 16 ± 7 nM; on VEGF it was 90 ± 30 nM; on FGF-2, 490 ± 40 nM. In assay [2], this compound had an APTT of 58.5 s. Further, the Heptest in assay [3] stood at 24.2 s.

In the case of `CC(C)CCC[C@@H](C)[C@H]1CC[C@H]2[C@@H]3CCC4C[C@@H](OCc5cn(CCCO[C@H]6O[C@H](COS(=O)(=O)[O-])[C@@H](OS(=O)(=O)[O-])[C@H](O[C@H]7O[C@H](COS(=O)(=O)[O-])[C@@H](OS(=O)(=O)[O-])[C@H](O[C@H]8O[C@H](COS(=O)(=O)[O-])[C@@H](OS(=O)(=O)[O-])[C@H](OS(=O)(=O)[O-])[C@@H]8OS(=O)(=O)[O-])[C@@H]7OS(=O)(=O)[O-])[C@@H]6OS(=O)(=O)[O-])nn5)CC[C@]4(C)[C@H]3CC[C@]12C.[Na+].[Na+].[Na+].[Na+].[Na+].[Na+].[Na+].[Na+].[Na+].[Na+]` (stereo partly drawn) [Compound 60, 3-{4-(Cholestan-3β-yl-oxymethyl)-[1,2,3]triazol-1-yl}propyl 2,3,4,6-tetra-O-sodium sulfonato-α-D-mannopyranosyl-(1→3)-2,4,6-tri-O-sodium sulfonato-α-D-mannopyranosyl-(1→3)-3,4,6-tri-O-sodium sulfonato-α-D-mannopyranoside], the “HSV-2 IC50” value with HSV-2 worked out at 0.24 µg/mL. In the assay with RSV, the “RSV IC50” value amounted to 0.39 µg/mL. In addition, the Ki in assay [1] was 8.4 ± 2.6 nM. Moreover, the Kd turned out to be 14.3 ± 3 nM on FGF-1, 260 ± 130 nM at VEGF and 474 ± 1.4 nM on FGF-2. The compound also returned an APTT in assay [2] of 71.4 s. Also, in assay [3], the Heptest stood at 26.4 s.

As to `CC(C)CCC[C@@H](C)[C@H]1CC[C@H]2[C@@H]3CCC4CC(OCc5cn([C@@H]6O[C@H](COS(=O)(=O)[O-])[C@@H](O[C@H]7O[C@H](COS(=O)(=O)[O-])[C@@H](O[C@H]8O[C@H](COS(=O)(=O)[O-])[C@@H](OS(=O)(=O)[O-])[C@H](OS(=O)(=O)[O-])[C@H]8OS(=O)(=O)[O-])[C@H](OS(=O)(=O)[O-])[C@H]7OS(=O)(=O)[O-])[C@H](OS(=O)(=O)[O-])[C@H]6OS(=O)(=O)[O-])nn5)CC[C@]4(C)[C@H]3CC[C@]12C.[Na+].[Na+].[Na+].[Na+].[Na+].[Na+].[Na+].[Na+].[Na+].[Na+]` (stereo partly drawn) [Compound 70, 4-(Cholestan-3-yl-oxymethyl)[1,2,3]triazol-1-yl 2,3,4,6-tetra-O-sodium sulfonato-α-D-glucopyranosyl-(1→4)-2,3,6-tri-O-sodium sulfonato-α-D-glucopyranosyl-(1→4)-1-deoxy-2,3,6-tri-O-sodium sulfonato-β-D-glucopyranoside], in the assay with HSV-2, the “HSV-2 IC50” value is 0.15 µg/mL. The “RSV IC50” value with RSV stood at 0.23 µg/mL. Also, the Ki in assay [1] is 3.7 ± 0.8 nM. For the same compound, the Kd on FGF-1 is 9.7 ± 0.8 nM; at VEGF, 95 ± 8 nM; at FGF-2, 390 ± 90 nM. Also, the APTT in assay [2] is listed as 104.0 s. The compound also had a Heptest in assay [3] of 45.5 s.

Consider `CCCCCCCCCCCCCCCCCC(=O)NCCCO[C@@H]1O[C@H](COS(=O)(=O)[O-])[C@@H](O[C@H]2O[C@H](COS(=O)(=O)[O-])[C@@H](O[C@H]3O[C@H](COS(=O)(=O)[O-])[C@@H](O[C@H]4O[C@H](COS(=O)(=O)[O-])[C@@H](OS(=O)(=O)[O-])[C@H](OS(=O)(=O)[O-])[C@H]4OS(=O)(=O)[O-])[C@H](OS(=O)(=O)[O-])[C@H]3OS(=O)(=O)[O-])[C@H](OS(=O)(=O)[O-])[C@H]2OS(=O)(=O)[O-])[C@H](OS(=O)(=O)[O-])[C@H]1OS(=O)(=O)[O-].[Na+].[Na+].[Na+].[Na+].[Na+].[Na+].[Na+].[Na+].[Na+].[Na+].[Na+].[Na+].[Na+]` [Compound 128, 3-Stearamidopropyl 2,3,4,6-tetra-O-sulfo-α-D-glucopyranosyl-(1→4)-2,3,6-tri-O-sulfo-α-D-glucopyranosyl-(1→4)-2,3,6-tri-O-sulfo-α-D-glucopyranosyl-(1→4)-2,3,6-tri-O-sulfo-β-D-glucopyranoside, tridecasodium salt], for which the IC50 in the assay on HSV-2 (Human alphaherpesvirus 2, read-out: HSV-2 IC50) was determined as 1 µg/mL; in the assay on RSV (human respiratory syncytial virus, read-out: RSV IC50) it was 1.4 µg/mL. The Ki in assay [1] was found to be 9.1 ± 0.3 nM. The Kd on FGF-1 stood at 4.94 ± 0.08 nM; on VEGF, 14 ± 4 nM; at FGF-2, 311 ± 25 nM. In assay [2], this compound showed an APTT of 65.8 s. In assay [3], this compound gave a Heptest of 32.2 s.

The Ki is the equilibrium dissociation constant of an inhibitor or competing ligand from its target. As usually defined, the Kd is a measure of binding affinity in units of concentration. Broadly, the IC50 is the concentration needed to halve the response being measured.

The values are drawn from US20150065440A1 (Progen Pharmaceuticals Limited, priority 2007, published 2015).
